≈ marks a conversion by molar mass, not a printed value.
What was measured:
[1] = system: Oncorhynchus mykiss
[2] = system: Apis mellifera; details: acute, mortality
[3] = system: Rattus norvegicus; details: oral; for NOAEL: diet, neurology
[4] = system: Orius insidiosus; details: acute, duration: 7 days
[5] = system: Daphnia magna; details: chronic/long-term; duration: 21 days
[6] = system: Tagia sp.; details: mortality
[7] = system: Bird

COP(=S)(OC)Oc1ccc([N+](=O)[O-])c(C)c1 [Fenitrothion]
LC50 ([1]; acute, duration: 96 hours, mortality): 1.3 µg/mL (≈ 4.69 µM)
NOEC ([1]; chronic/long-term, duration: 96 days): 0.088 mg/L
LD50 ([2]; dermal): 0.16 µg/piece
LD50 ([2]; oral, unspecified): 0.2 µg/piece
LD50 ([3]; acute, mortality): 330 mg/kg-day
NOAEL ([3]; chronic, duration: 2 years): 0.5 mg/kg-day
NOAEL ([3]; subchronic, duration: 90 days): 1.32 mg/kg-day
LEL ([4]; mortality): 715 g/ha
LEL ([4]; reproduction): 715 g/ha
NOEC [5]: 0.087 µg/L
LC50 ([6]; acute): 231 mg/kg
NOEC ([6]; chronic/long-term): 2.5 mg/kg
LD50 ([7]; acute, oral, unspecified, mortality): 2.3 mg/kg-day
NOEC ([7]; reproductive): 2.34 mg/kg
LC50 ([7]; short-term, oral, feed, mortality): 23 mg/kg

From EPA's ToxValDB 9.5 (doi:10.2903/j.efsa.2006.59r)
